Biological target: Human norepinephrine transporter (NET) (Homo sapiens, UniProt P23975)
Assay: Binding assay to human norepinephrine transporter (NET), [3H]-Nisoxetin
Conditions: human NET enriched membranes, 5 nM [3H]-Nisoxetin; Ki as class symbol
Protocol: Binding Assay to Human Norepinephrine Transporter (NET).
Human norepinephrine transporter (NET) enriched membranes (5 μg) were incubated with 5 nM of radiolabeled [3H]-Nisoxetin in assay buffer containing 50 mM Tris-HCl, 120 mM NaCl, 5 mM KCl, pH 7.4.
NSB (non specific binding) was measured by adding 10 μM of desipramine. The binding of the test compound was measured at five different concentrations.. After 60 min incubation at 4° C., binding reaction was terminated by filtering through Multiscreen GF/C (Millipore) presoaked in 0.5% polyethyleneimine in Vacuum Manifold Station, followed by 3 washes with ice-cold filtration buffer containing 50 mM Tris-HCl, 0.9% NaCl, pH 7.4.
Filter plates were dried at 60° C. for 1 hour and 30 μl of scintillation cocktail were added to each well before radioactivity reading.

Chain of Human norepinephrine transporter (NET) (P23975 whole entry): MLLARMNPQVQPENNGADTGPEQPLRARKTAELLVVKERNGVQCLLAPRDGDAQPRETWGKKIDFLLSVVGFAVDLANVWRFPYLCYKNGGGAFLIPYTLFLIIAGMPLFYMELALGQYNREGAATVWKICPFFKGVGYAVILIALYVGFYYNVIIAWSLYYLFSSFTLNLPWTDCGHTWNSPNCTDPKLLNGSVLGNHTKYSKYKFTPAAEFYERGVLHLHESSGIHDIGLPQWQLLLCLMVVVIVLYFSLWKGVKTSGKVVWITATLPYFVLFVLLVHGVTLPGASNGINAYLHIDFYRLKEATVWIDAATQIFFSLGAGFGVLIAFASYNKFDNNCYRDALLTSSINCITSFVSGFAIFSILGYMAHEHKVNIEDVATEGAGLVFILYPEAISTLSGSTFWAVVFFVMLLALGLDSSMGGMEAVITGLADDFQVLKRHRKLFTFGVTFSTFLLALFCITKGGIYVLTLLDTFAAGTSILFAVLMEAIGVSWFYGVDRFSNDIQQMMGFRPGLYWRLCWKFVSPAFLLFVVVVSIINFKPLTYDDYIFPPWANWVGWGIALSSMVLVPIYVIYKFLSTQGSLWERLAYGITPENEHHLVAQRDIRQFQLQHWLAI

SMILES | Ki [µM]
CCOc1ccc(-n2nc3c(N(C)CC[C@@H](O)c4ccccc4)nnc(C)c3c2C)c(F)c1 [Example 50, (R)-3-((2-(4-ethoxy-2-fluorophenyl)-3,4-dimethyl-2H-pyrazolo[3,4-d]pyridazin-7-yl)(methyl)amino)-1-phenylpropan-1-ol] | 0.1 to 0.5
CCOc1ccc(-n2nc3c(N(C)Cc4ccc(O)cc4)nnc(C)c3c2C)c(F)c1 [Example 18, 4-(((2-(4-ethoxy-2-fluorophenyl)-3,4-dimethyl-2H-pyrazolo[3,4-d]pyridazin-7-yl)(methyl)amino)methyl)phenol] | < 0.1
Cc1nnc(N(C)Cc2ccccn2)c2nn(-c3ccc(Cl)cc3OC(F)(F)F)c(C)c12 [Example 42, 2-(4-chloro-2-(trifluoromethoxy)phenyl)-N,3,4-trimethyl-N-(pyridin-2-ylmethyl)-2H-pyrazolo[3,4-d]pyridazin-7-amine] | > 1
CCOc1ccc(-n2nc3c(N(C)Cc4cc(C)ccn4)nnc(C)c3c2C)c(F)c1 [Example 44, 2-(4-ethoxy-2-fluorophenyl)-N,3,4-trimethyl-N-((4-methylpyridin-2-yl)methyl)-2H-pyrazolo[3,4-d]pyridazin-7-amine] | 0.5 to 1
CCOc1ccc(-n2nc3c(N(C)Cc4ccccc4)nnc(C)c3c2C)c(F)c1 [Example 6, N-benzyl-2-(4-ethoxy-2-fluorophenyl)-N,3,4-trimethyl-2H-pyrazolo[3,4-d]pyridazin-7-amine] | < 0.1
CCOc1ccc(-n2nc3c(N(CCO)Cc4ccccc4)nnc(C)c3c2C)c(F)c1 [Example 55, 2-(benzyl(2-(4-ethoxy-2-fluorophenyl)-3,4-dimethyl-2H-pyrazolo[3,4-d]pyridazin-7-yl)amino)ethanol] | 0.5 to 1
CCOc1ccc(-n2nc3c(N(C)CCC(O)c4ccccc4)nnc(C)c3c2C)c(F)c1 (centres unmarked) [Example 2, 3-((2-(4-ethoxy-2-fluorophenyl)-3,4-dimethyl-2H-pyrazolo[3,4-d]pyridazin-7-yl)(methyl)amino)-1-phenylpropan-1-ol] | < 0.1
CCOc1ccc(-n2nc3c(N(C)CC[C@H](O)c4ccccc4)nnc(C)c3c2C)c(F)c1 [Example 49, (S)-3-((2-(4-Ethoxy-2-fluorophenyl)-3,4-dimethyl-2H-pyrazolo[3,4-d]pyridazin-7-yl)(methyl)amino)-1-phenylpropan-1-ol] | < 0.1
CCOc1ccc(-n2nc3c(NCC[C@@H](O)c4ccccc4)nnc(C)c3c2C)c(F)c1 [Example 51, (R)-3-((2-(4-Ethoxy-2-fluorophenyl)-3,4-dimethyl-2H-pyrazolo[3,4-d]pyridazin-7-yl)amino)-1-phenylpropan-1-ol] | > 1
CCOc1ccc(-n2nc3c(N(C)Cc4cccc(O)c4)nnc(C)c3c2C)c(F)c1 [Example 17, 3-(((2-(4-ethoxy-2-fluorophenyl)-3,4-dimethyl-2H-pyrazolo[3,4-d]pyridazin-7-yl)(methyl)amino)methyl)phenol] | 0.1 to 0.5
CCOc1ccc(-n2nc3c(N(C)Cc4ccc(OC)cn4)nnc(C)c3c2C)c(F)c1 [Example 38, 2-(4-ethoxy-2-fluorophenyl)-N-((5-methoxypyridin-2-yl)methyl)-N,3,4-trimethyl-2H-pyrazolo[3,4-d]pyridazin-7-amine] | 0.1 to 0.5
CCOc1ccc(-n2nc3c(N(C)Cc4ccccn4)nnc(C)c3c2C)cc1 [Example 46, 2-(4-ethoxyphenyl)-N,3,4-trimethyl-N-(pyridin-2-ylmethyl)-2H-pyrazolo[3,4-d]pyridazin-7-amine] | 0.5 to 1
CCOc1ccc(-n2nc3c(NCC[C@H](O)c4ccccc4)nnc(C)c3c2C)c(F)c1 [Example 52, (S)-3-((2-(4-ethoxy-2-fluorophenyl)-3,4-dimethyl-2H-pyrazolo[3,4-d]pyridazin-7-yl)amino)-1-phenylpropan-1-ol] | 0.1 to 0.5
CCOc1ccc(-n2nc3c(N(C)Cc4ccccc4CO)nnc(C)c3c2C)c(F)c1 [Example 41, (2-(((2-(4-ethoxy-2-fluorophenyl)-3,4-dimethyl-2H-pyrazolo[3,4-d]pyridazin-7-yl)(methyl)amino)methyl)phenyl)meth-anol] | 0.1 to 0.5

— patent publication US20200199127A1, “(HETERO)ARYLALKYLAMINO-PYRAZOLOPYRIDAZINE DERIVATIVES HAVING MULTIMODAL ACTIVITY AGAINST PAIN” (priority 2017, published 2020)
